Some results are limits rather than exact numbers.

One data set deals with T1, Aβ1-40 aggregation (Homo sapiens, UniProt P05067).
T1 construct: purchased EZBiolab
Put plainly: Inhibition of Aβ40 aggregation, ThT fluorescence. The data set is classed as biochemical. The conditions noted are these: inhibitor 10 µM, Aβ40 30 µM, PBS pH 7.4, 2% HFIP, 2 h 25 °C, mean ± SEM; for inhibition at 10 µM: read-out: Aβ1-40 Aggregation (I% at 10 µM). Here is the method: ThT fluorescence in the presence of Aβ was measured for each compound according a previously described procedure. The samples were co-incubated and mixed in 96-well black, non-binding microplates (Greiner Bio-One GmbH, Frickenhausen, Germany), incubating Aβ40 (EZBiolab, Carmel, IN, USA) at a final concentration of 30 µM with each inhibitors at a final concentration of 10 µM in PBS (pH 7.4) containing 2% 1,1,1,3,3,3-hexafluoro-2-propanol (HFIP). After 2 h at 25 °C, a 25 µM ThT solution was added and fluorescence was determined using the multi-plate reader Tecan Infinite M1000 Pro (Tecan, Cernusco S.N., Italy). The results are reported as mean of three independent experiments ± SEM [13].

For another data set, the system named is HepG2 cells. The experiment in a line: DCFH-DA cell-based antioxidant assay (H2O2-induced oxidation), HepG2. As to conditions: Homo sapiens, 1 h compound, 100 μM H2O2, read-out: DCFDH-DA IC50 ± SEM HepG2. Here is the method: (§1) HepG2 cells were cultured in Eagle’s Minimum Essential Medium (MEM, Euroclone S.p.A., Pero, MI, Italy), supplemented with 10% Fetal Bovine Serum (FBS, Euroclone S.p.A., Pero, MI, Italy), 1% L-glutamine (Euroclone S.p.A., Pero, MI, Italy), 100 U/mL penicillin/streptomycin (Euroclone S.p.A., Pero, MI, Italy), 1% Non-Essential Amino Acids (NEAA, Euroclone S.p.A., Pero, MI, Italy). SH-SY5Y cells were grown in a 1:1 mixture of Dulbecco’s modified Eagle’s medium (DMEM)—high glucose (Euroclone S.p.A., Pero, MI, Italy) and Ham’s F12 Medium (Euroclone S.p.A., Pero, MI, Italy) supplemented with 10% FBS, 1% L-glutamine and 100 U/mL penicillin/streptomycin. For cell assays, cells were trypsinized using Trypsin-EDTA 1X in PBS (Euroclone S.p.A., Pero, MI, Italy).
(§2) According to a slightly modified procedure already reported in the literature, the generation of ROS was determined using an oxidation-sensitive fluorescent probe, 2′,7′-dichlorodihydrofluorescein diacetate (DCFH-DA, D6665; Sigma-Aldrich, St. Louis, MO, USA). Briefly, viable cells were seeded in a black 96-well cell culture plate (Costar, Sigma-Aldrich, St. Louis, MO, USA) and after 24 h were incubated with different concentrations (0.1–100 µM) of each compound for 1 h at 37 °C in 5% CO2. […] After washing using PBS, 100 μM H2O2 in medium without serum was added to each well and the cells were incubated for an additional 30 min. The formation of fluorescent dichlorofluorescein (DCF) due to oxidation of DCFH in the presence of ROS, was read at 530 nm using a microplate reader Tecan Infinite M1000 Pro (Tecan, Cernusco S.N., Italy) and DMSO medium was used for control cells. The results are expressed as mean ± SEM of at least three independent measurements in triplicate.

Another data set deals with SH-SY5Y cells. The experiment in a line: DCFH-DA cell-based antioxidant assay (H2O2-induced oxidation), SH-SY5Y. The conditions noted are these: Homo sapiens, SHSY-5Y, 1 h compound, 100 μM H2O2, read-out: DCFDH-DA IC50 ± SEM SHSY-5Y. The procedure:
as §1, §2

A short description of data set [1]: DPPH radical scavenging assay. As to conditions: DPPH 100 µM in methanol, 30 min. The procedure: A previously reported method (Blois) with some modifications (Mishra, Ojha, & Chaudhury, 2012) was used to carry out the DPPH assay in 96-well microtiter plates. Each tested compound was dissolved in methanol, after which a freshly prepared solution of DPPH in methanol (100 µM final concentration) was added. Following vigorous stirring, each mixture was left in the dark for 30 min at room temperature, after which absorbance values for each well were read at 520 nm using a spectrophotometric plate reader (VICTOR^3 V multilabel plate reader, PerkinElmer). Antioxidant activity was determined as RSA% (radical scavenging activity). The value was calculated using following equation: RSA% = 100 × [(Ao − Ai)/Ao], where Ao and Ai represent DPPH absorbance in absence or in presence of antioxidant, respectively. Antiradical curves for calculating the EC50 values were obtained by testing each compound at several concentrations. Values of all parameters are expressed as mean ± SEM of at least three independent measurements in triplicate.
(In general: The DPPH test is a chemical assay of radical scavenging.)

Data set [2] in a line: MTT cell viability assay, HepG2. The data set is classed as cell-based. As to conditions: human, HepG2 cells; for IC50 at 1 h: HepG2, 1 h exposure; for IC50 at 24 h: HepG2, 24 h exposure, read-out: MTT cytotoxicity IC50 ± SEM HepG2 24 h. The procedure: as §1, with “Human hepatocellular liver carcinoma (HepG2) cell line and human neuroblastoma cell line, SH-SY5Y, were purchased from the American Type Culture Collection (ATCC, Manassas, VA, USA) and maintained at 37 °C in a humidified atmosphere (95% air and 5% carbon dioxide), and they were periodically screened for contamination. HepG2” for “HepG2”
(§3) HepG2 and SH-SY5Y cell viability was assessed as previously reported by using a conventional 3-(4,5-dimethylthiazol-2-yl)-2,5-diphenyltetrazolium bromide (MTT) assay. In brief, viable cells were seeded and grown for 24 h into a sterile 96-well cell culture cluster (Corning, Sigma-Aldrich, St. Louis, MO, USA) in a complete medium and maintained at 37 °C in a humidified atmosphere with 5% CO2. The cells were then added with different concentrations of each compound for a period of 1 h or 24 h. At the end, the culture medium was replaced by a solution of 0.5 mg/mL MTT (Sigma-Aldrich, St. Louis, MO, USA) in PBS. After 2 h of incubation at 37 °C in 5% CO2, the supernatant was carefully removed from each well, and the formazan crystals were dissolved in DMSO. The absorbance values were measured at 570 nm using Tecan Infinite M1000 Pro (Tecan, Cernusco S.N., Italy) and DMSO medium as blank solution. The results were reported as % cell viability = [optical density (OD) of tested compound/medium OD of control cells] × 100. The results are expressed as mean ± SEM of at least three independent measurements in triplicate.
For orientation: Tetrazolium assays rely on reduction of a dye to a coloured formazan, in cell work by metabolically active cells.

Data set [3] is described as follows: MTT cell viability assay, SH-SY5Y. The data set is classed as cell-based. The conditions noted are these: human, SH-SY5Y cells, SHSY-5Y; for IC50 at 1 h: 1 h exposure; for IC50 at 24 h: 24 h exposure, read-out: MTT cytotoxicity IC50 ± SEM SHSY-5Y 24 h. The procedure: as §1, with “Human hepatocellular liver carcinoma (HepG2) cell line and human neuroblastoma cell line, SH-SY5Y, were purchased from the American Type Culture Collection (ATCC, Manassas, VA, USA) and maintained at 37 °C in a humidified atmosphere (95% air and 5% carbon dioxide), and they were periodically screened for contamination. HepG2” for “HepG2”
as §3

T1 sequence (P05067 672-711 limits assumed): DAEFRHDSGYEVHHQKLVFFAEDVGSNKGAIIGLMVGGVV

Regarding `O=C(NCC1CCN(Cc2ccccc2)CC1)c1ccc2c(c1)Nc1ccccc1S2` [Compound 11a, N-((1-Benzylpiperidin-4-yl)methyl)-10H-phenothiazine-2-carboxamide], the inhibition at 10 µM at Aβ1-40 aggregation worked out at 8%. The values for the IC50 in the data set with HepG2 cells and with SH-SY5Y cells were 8.31 ± 1.4 µM and 14.1 ± 0.6 µM, respectively. For the same compound, the “EC50 (μmol/μmol of DPPH ± SEM)” value in data set [1] is recorded as 0.082 ± 0.007 μmol/μmol of DPPH. Further, the IC50 at 1 h in data set [2] and in data set [3] was greater than 100 µM throughout. Besides, the IC50 (as a rule, the concentration that gives 50% inhibition) at 24 h in data set [2] is 62.7 ± 0.7 µM; in data set [3], greater than 100 µM.

Consider `O=C(NCC1CCN(Cc2ccccc2F)CC1)c1ccc2c(c1)Nc1ccccc1S2` [Compound 11d, N-((1-(2-Fluorobenzyl)piperidin-4-yl)methyl)-10H-phenothiazine-2-carboxamide], for which the inhibition at 10 µM on Aβ1-40 aggregation amounted to 43%. The IC50 came to 1.82 ± 0.6 µM in the data set with HepG2 cells and 1.43 ± 0.5 µM in the data set with SH-SY5Y cells. For the same compound, the “EC50 (μmol/μmol of DPPH ± SEM)” value in data set [1] is 0.126 ± 0.014 μmol/μmol of DPPH. The IC50 at 1 h in data set [2] and in data set [3] was greater than 100 µM in each case. The 50% inhibitory concentration (IC50) at 24 h in data set [2] is 41 ± 0.2 µM; in data set [3], 9.33 ± 0.86 µM.

Turning to `Cc1ccccc1CN1CCC(CNC(=O)c2ccc3c(c2)Nc2ccccc2S3)CC1` [Compound 11c, N-((1-(2-Methylbenzyl)piperidin-4-yl)methyl)-10H-phenothiazine-2-carboxamide], the inhibition at 10 µM on Aβ1-40 aggregation was determined as 47%. Besides, the IC50 in the data set with HepG2 cells turned out to be 17.6 ± 0.5 µM; in the data set on SH-SY5Y cells, 2.11 ± 0.4 µM. Moreover, the “EC50 (μmol/μmol of DPPH ± SEM)” value in data set [1] is listed as 0.117 ± 0.013 μmol/μmol of DPPH. Moreover, the half-inhibitory concentration (IC50) at 1 h in data set [2] and in data set [3] was greater than 100 µM each time. The IC50 at 24 h came to 35.2 ± 1.1 µM in data set [2] and 15.2 ± 1.2 µM in data set [3].

For the compound `Cc1ccccc1CN1CCN(CCNC(=O)c2ccc3c(c2)Nc2ccccc2S3)CC1` [Compound 12c, N-(2-(4-(2-Methylbenzyl)piperazin-1-yl)ethyl)-10H-phenothiazine-2-carboxamide], the IC50 with HepG2 cells is 4.21 ± 0.81 µM; in the data set with SH-SY5Y cells it was 11.3 ± 0.21 µM. The “EC50 (μmol/μmol of DPPH ± SEM)” value in data set [1] is given as 0.145 ± 0.010 μmol/μmol of DPPH. Besides, the IC50 at 1 h in data set [2] and in data set [3] was greater than 100 µM in each case. For the same compound, the 50% inhibitory concentration (IC50) at 24 h in data set [2] and in data set [3] was greater than 100 µM throughout.

With `CC(=O)N1c2ccccc2Sc2ccc(C(=O)NCCN3CCN(Cc4ccccc4Cl)CC3)cc21` [Compound 13, 10-Acetyl-N-(2-(4-(2-chlorobenzyl)piperazin-1-yl)ethyl)-10H-phenothiazine-2-carboxamide], on Aβ1-40 aggregation, the “Aβ1-40 Aggregation (I% at 10 µM)” value is “lack of activity”. For the same compound, the IC50 was found to be 0.63 ± 0.1 µM in the data set with HepG2 cells and 1.22 ± 0.2 µM in the data set with SH-SY5Y cells. Moreover, the half-inhibitory concentration (IC50) at 1 h in data set [2] and in data set [3] was greater than 100 µM in each case. The IC50 at 24 h in data set [2] was greater than 100 µM; in data set [3], 55.3 ± 1.22 µM.

Turning to `COc1cccc(CN2CCC(CNC(=O)c3ccc4c(c3)Nc3ccccc3S4)CC2)c1` [Compound 11e, N-((1-(3-Methoxybenzyl)piperidin-4-yl)methyl)-10H-phenothiazine-2-carboxamide], the inhibition at 10 µM on Aβ1-40 aggregation turned out to be 24%. Moreover, the IC50 in the data set on HepG2 cells was 3.21 ± 0.5 µM; with SH-SY5Y cells, 1.12 ± 0.9 µM. Besides, the “EC50 (μmol/μmol of DPPH ± SEM)” value in data set [1] is listed as 0.104 ± 0.011 μmol/μmol of DPPH. In addition, the IC50 at 1 h in data set [2] and in data set [3] was greater than 100 µM in each case. For the same compound, the values for the 50% inhibitory concentration (IC50) at 24 h in data set [2] and in data set [3] were 14.9 ± 0.61 µM and 29 ± 1.1 µM, respectively.

In the case of `O=C(NCCN1CCN(Cc2ccccc2F)CC1)c1ccc2c(c1)Nc1ccccc1S2` [Compound 12d, N-(2-(4-(2-Fluorobenzyl)piperazin-1-yl)ethyl)-10H-phenothiazine-2-carboxamide], the inhibition at 10 µM at Aβ1-40 aggregation turned out to be 60%. For the same compound, the IC50 in the data set with HepG2 cells was determined as 14.6 ± 0.5 µM; in the data set with SH-SY5Y cells, 11.7 ± 1.11 µM. Besides, the “EC50 (μmol/μmol of DPPH ± SEM)” value in data set [1] was 0.231 ± 0.026 μmol/μmol of DPPH. Further, the IC50 at 1 h in data set [2] and in data set [3] was greater than 100 µM each time. In addition, the IC50 at 24 h in data set [2] was 42.9 ± 1.81 µM; in data set [3], greater than 100 µM.

Consider `O=C(NCCN1CCN(Cc2ccccc2)CC1)c1ccc2c(c1)Nc1ccccc1S2` [Compound 12a, N-(2-(4-Benzylpiperazin-1-yl)ethyl)-10H-phenothiazine-2-carboxamide], for which the inhibition at 10 µM at Aβ1-40 aggregation worked out at 43%. The 50% inhibitory concentration (IC50) in the data set with HepG2 cells was determined as 1.13 ± 0.41 µM; in the data set on SH-SY5Y cells it was 2.01 ± 0.61 µM. Further, the “EC50 (μmol/μmol of DPPH ± SEM)” value in data set [1] was 0.182 ± 0.016 μmol/μmol of DPPH. Further, the 50% inhibitory concentration (IC50) at 1 h in data set [2] and in data set [3] was greater than 100 µM in each case. The IC50 at 24 h was 28.8 ± 0.42 µM in data set [2] and greater than 100 µM in data set [3].

Regarding `O=C(NCCN1CCN(Cc2ccccc2Cl)CC1)c1ccc2c(c1)Nc1ccccc1S2` [Compound 12b, N-(2-(4-(2-Chlorobenzyl)piperazin-1-yl)ethyl)-10H-phenothiazine-2-carboxamide], at Aβ1-40 aggregation, the inhibition at 10 µM was determined as 27%. For the same compound, the IC50 worked out at 18.7 ± 0.2 µM in the data set on HepG2 cells and 9.1 ± 1.42 µM in the data set on SH-SY5Y cells. In data set [1], the “EC50 (μmol/μmol of DPPH ± SEM)” value was 0.122 ± 0.011 μmol/μmol of DPPH. Further, the IC50 at 1 h in data set [2] and in data set [3] was greater than 100 µM throughout. Also, the IC50 at 24 h was greater than 100 µM in data set [2] and 31.8 ± 2 µM in data set [3].
